Experimental findings from patent US8450266B2 (Ipsen Pharma S.A.S., priority 2008, dated 2013) are described below.

Data set [1] is described as follows: Rat plasma half-life assay (LC-MS). Type of data set: in vitro ADME. The note with it: incubated at 37° C., read-out: Rat Plasma T½ (converted). Put shortly:
(§1)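 Aliquots taken from human or rat plasma at time points up to 72 h, quenched with formic acid and acetonitrile, centrifuged. Supernatant analyzed by LC-MS (ESI, positive ion, full scan) on a C8 column with a water/acetonitrile 1% formic acid gradient.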

The nature of data set [2]: Human plasma half-life assay (LC-MS). It counts as in vitro ADME. The conditions noted are these: incubated at 37° C., read-out: Human Plasma T½ (converted). Put shortly:
as §1

Data set [3] deals with T1, human recombinant GIP receptor (Homo sapiens, UniProt P48546).
T1 construct: expressed in transfected cells; host or cells: CHO-K1 clonal cells (membranes)
T1 sequence (P48546 22-466): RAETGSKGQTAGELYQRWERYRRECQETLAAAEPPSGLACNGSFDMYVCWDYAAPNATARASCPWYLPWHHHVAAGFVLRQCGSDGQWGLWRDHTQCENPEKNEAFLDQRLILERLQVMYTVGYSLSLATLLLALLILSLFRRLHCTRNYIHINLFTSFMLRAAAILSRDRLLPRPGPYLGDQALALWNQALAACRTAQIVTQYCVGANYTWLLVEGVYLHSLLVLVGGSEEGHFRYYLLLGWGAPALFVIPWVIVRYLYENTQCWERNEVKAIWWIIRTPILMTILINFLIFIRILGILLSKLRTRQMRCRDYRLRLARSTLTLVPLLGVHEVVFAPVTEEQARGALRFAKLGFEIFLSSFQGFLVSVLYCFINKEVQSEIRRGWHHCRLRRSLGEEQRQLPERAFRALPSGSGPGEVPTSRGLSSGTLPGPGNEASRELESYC
Briefly: In vitro hGIP receptor binding assay ([125I]GIP displacement, CHO-K1 membranes). The source says:
A. In Vitro hGIP Receptor Binding Assay

Where a SMILES comes first, the peptide text is derived from it. [ ]: non-standard residue; d: D form. The star is where a group is joined. Decanoyl = CCCCCCCCCC(=O)*; Ac6c = NC1(C(=O)O)CCCCC1; Orn = NCCC[C@H](N)C(=O)O Where only a bound is given, the exact number is not on record here.

By Ki is commonly meant the dissociation constant of the complex between target and ligand, obtained from inhibition or displacement.

For the compound `CCCCCCCCCC(=O)NCCC[C@H](NC(=O)[C@H](CCCCN)NC(=O)[C@H](CCCCN)NC(=O)CNC(=O)[C@H](CCCCN)NC(=O)[C@H](CCC(N)=O)NC(=O)[C@H](C)NC(=O)[C@H](CC(C)C)NC(=O)[C@H](CC(C)C)NC(=O)[C@H](Cc1c[nH]c2ccccc12)NC(=O)[C@H](CC(N)=O)NC(=O)[C@@H](NC(=O)[C@H](Cc1ccccc1)NC(=O)[C@H](CC(=O)O)NC(=O)[C@H](CCC(N)=O)NC(=O)[C@H](CCC(N)=O)NC(=O)[C@H](Cc1c[nH]cn1)NC(=O)[C@@H](NC(=O)[C@H](CCCCN)NC(=O)[C@H](CC(=O)O)NC(=O)[C@H](CCSC)NC(=O)[C@H](C)NC(=O)[C@@H](NC(=O)[C@H](CO)NC(=O)[C@H](Cc1ccc(O)cc1)NC(=O)[C@H](CC(=O)O)NC(=O)[C@H](CO)NC(=O)C1(NC(=O)CCCCCCCCC)CCCCC1)[C@@H](C)CC)[C@@H](C)CC)C(C)C)C(=O)N[C@@H](CC(=O)O)C(=O)N[C@@H](Cc1c[nH]c2ccccc12)C(=O)N[C@@H](CCCCN)C(=O)N[C@@H](Cc1c[nH]cn1)C(=O)N[C@@H](CC(N)=O)C(=O)N[C@H](C(=O)N[C@H](C(=O)N[C@@H](CCC(N)=O)C(=O)O)[C@@H](C)O)[C@@H](C)CC` [Example 21, [CH3-(CH2)8-C(O)-A6c^7, Orn^34(N-C(O)-(CH2)8-CH3)]hGIP(7-42)-OH] (Decanoyl-[Ac6c]SDYSIAMDKIHQQDFVNWLLAQKGKK[Orn](Decanoyl)DWKHNITQ-OH), the values for the half-life at 0.1 mg/mL in data set [1] and in data set [2] were above 72 h and 8 h, respectively. Further, in data set [3], the inhibitory constant (Ki) came out at 163 nM.
As to `CC[C@H](C)[C@H](NC(=O)[C@H](CCCCN)NC(=O)[C@H](CC(=O)O)NC(=O)[C@H](CCSC)NC(=O)C(C)(C)NC(=O)[C@@H](NC(=O)[C@H](CO)NC(=O)[C@H](Cc1ccc(O)cc1)NC(=O)[C@H](CC(=O)O)NC(=O)[C@H](CO)NC(=O)[C@@H](NC(=O)[C@H](Cc1ccccc1)NC(=O)[C@@H](NC(=O)CNC(=O)[C@H](CCC(=O)O)NC(=O)CCc1ccc(O)cc1)[C@@H](C)O)[C@@H](C)CC)[C@@H](C)CC)C(=O)N[C@@H](Cc1c[nH]cn1)C(=O)N[C@@H](CCC(N)=O)C(=O)N[C@@H](CCC(N)=O)C(=O)N[C@@H](CC(=O)O)C(=O)N[C@@H](Cc1ccccc1)C(=O)N[C@H](C(=O)N[C@@H](CC(N)=O)C(=O)N[C@@H](Cc1c[nH]c2ccccc12)C(=O)N[C@@H](CC(C)C)C(=O)N[C@@H](CC(C)C)C(=O)N[C@@H](C)C(=O)N[C@@H](CCC(N)=O)C(=O)N[C@@H](CCCCN)C(=O)NCC(=O)N[C@@H](CCCCN)C(=O)N[C@@H](CCCCN)C(=O)N[C@@H](CC(N)=O)C(=O)N[C@@H](CC(=O)O)C(=O)N[C@@H](Cc1c[nH]c2ccccc12)C(=O)N[C@@H](CCCCN)C(=O)N[C@@H](Cc1c[nH]cn1)C(=O)N[C@@H](CC(N)=O)C(=O)N[C@H](C(=O)N[C@H](C(=O)N[C@@H](CCC(N)=O)C(=O)O)[C@@H](C)O)[C@@H](C)CC)C(C)C` [Example 44, (4Hppa^2, Aib^13)hGIP(2-42)-OH)], the half-life at 0.1 mg/mL is 9.9 h in data set [1] and 48.8 h in data set [2].
Turning to `CC[C@H](C)[C@H](NC(=O)[C@H](CO)NC(=O)[C@H](Cc1ccc(O)cc1)NC(=O)[C@H](CC(=O)O)NC(=O)[C@H](CO)NC(=O)[C@@H](NC(=O)[C@H](Cc1ccccc1)NC(=O)[C@@H](NC(=O)CNC(=O)[C@H](CCC(=O)O)NC(=O)CCc1ccc(O)cc1)[C@@H](C)O)[C@@H](C)CC)C(=O)N[C@@H](C)C(=O)NC1(C(=O)N[C@@H](CC(=O)O)C(=O)N[C@@H](CCCCN)C(=O)N[C@H](C(=O)N[C@@H](Cc2c[nH]cn2)C(=O)N[C@@H](CCC(N)=O)C(=O)N[C@@H](CCC(N)=O)C(=O)N[C@@H](CC(=O)O)C(=O)N[C@@H](Cc2ccccc2)C(=O)N[C@H](C(=O)N[C@@H](CC(N)=O)C(=O)N[C@@H](Cc2c[nH]c3ccccc23)C(=O)N[C@@H](CC(C)C)C(=O)N[C@@H](CC(C)C)C(=O)N[C@@H](C)C(=O)N[C@@H](CCC(N)=O)C(=O)N[C@@H](CCCCN)C(=O)NCC(=O)N[C@@H](CCCCN)C(=O)N[C@@H](CCCCN)C(=O)N[C@@H](CC(N)=O)C(=O)N[C@@H](CC(=O)O)C(=O)N[C@@H](Cc2c[nH]c3ccccc23)C(=O)N[C@@H](CCCCN)C(=O)N[C@@H](Cc2c[nH]cn2)C(=O)N[C@@H](CC(N)=O)C(=O)N[C@H](C(=O)N[C@H](C(=O)N[C@@H](CCC(N)=O)C(=O)O)[C@@H](C)O)[C@@H](C)CC)C(C)C)[C@@H](C)CC)CCCCC1` [Example 45, (4Hppa^2, A6c^14)hGIP(2-42)-OH], the half-life at 0.1 mg/mL in data set [1] was 4.3 h; in data set [2], 64.2 h.
For `CC[C@H](C)[C@H](NC(=O)[C@H](CCCCN)NC(=O)[C@H](CC(=O)O)NC(=O)[C@H](CCSC)NC(=O)[C@H](C)NC(=O)[C@@H](NC(=O)C1(NC(=O)[C@H](Cc2ccc(O)cc2)NC(=O)[C@H](CC(=O)O)NC(=O)[C@H](CO)NC(=O)[C@@H](NC(=O)[C@H](Cc2ccccc2)NC(=O)[C@@H](NC(=O)CNC(=O)[C@H](CCC(=O)O)NC(=O)CCc2ccc(O)cc2)[C@@H](C)O)[C@@H](C)CC)CCCCC1)[C@@H](C)CC)C(=O)N[C@@H](Cc1c[nH]cn1)C(=O)N[C@@H](CCC(N)=O)C(=O)N[C@@H](CCC(N)=O)C(=O)N[C@@H](CC(=O)O)C(=O)N[C@@H](Cc1ccccc1)C(=O)N[C@H](C(=O)N[C@@H](CC(N)=O)C(=O)N[C@@H](Cc1c[nH]c2ccccc12)C(=O)N[C@@H](CC(C)C)C(=O)N[C@@H](CC(C)C)C(=O)N[C@@H](C)C(=O)N[C@@H](CCC(N)=O)C(=O)N[C@@H](CCCCN)C(=O)NCC(=O)N[C@@H](CCCCN)C(=O)N[C@@H](CCCCN)C(=O)N[C@@H](CC(N)=O)C(=O)N[C@@H](CC(=O)O)C(=O)N[C@@H](Cc1c[nH]c2ccccc12)C(=O)N[C@@H](CCCCN)C(=O)N[C@@H](Cc1c[nH]cn1)C(=O)N[C@@H](CC(N)=O)C(=O)N[C@H](C(=O)N[C@H](C(=O)N[C@@H](CCC(N)=O)C(=O)O)[C@@H](C)O)[C@@H](C)CC)C(C)C` [Example 46, (4Hppa^2, A6c^11)hGIP(2-42)-OH], in that order: 11.9 h and 30.8 h.
